Data set [1] is described as follows: Solid stability test of the polymorph A (XRPD). Type of data set: physicochemical. How it is done:
According to the “Guidelines for the Stability Test of Active Pharmaceutical Ingredients and Preparations” (Chinese Pharmacopoeia, 2015, Part IV, General Chapter 9001), the stability of the polymorph A of the compound of formula (I) was investigated under the conditions of high temperature (60° C., open), high humidity (room temperature/relative humidity of 92.5%, open), high temperature and high humidity (40° C., 75% RH; 60° C., 75% RH) and strong light (total illumination of 1.2×10^6 Lux·hr/near ultraviolet 200 w·hr/m^2, sealed).
15 mg of the polymorph A of the compound of formula (I) was weighed, placed on the bottom of a glass sample bottle, and spread into a thin layer. The sample placed under high temperature and high humidity was sealed with aluminum foil paper, and some small holes were pierced in the aluminum foil paper to ensure that the sample can fully contact with the ambient air; The samples placed under strong light conditions were sealed with screw caps. The samples placed under different conditions were sampled and tested (XRPD) on day 5 and day 10. The test results were compared with the initial test results on day 0.

Data set [2] in a line: Solid stability test of the polymorph A (XRPD). Type of data set: physicochemical. The settings on record: High temperature and high humidity (40° C., 75% RH; 60° C., 75% RH), 1 month.
In data set [3] the test system is human multiple myeloma cells MM.1S xenograft (CDX). The experiment in a line: In vivo pharmacodynamic study in MM.1S xenograft (CDX) model. How it is done: CB-17 SCID mice, female, 6 weeks to 8 weeks old, weight of about 17 grams to 20 grams. The mice were kept in a special pathogen-free environment and in a single ventilated cage (4 mice per cage). All cages, bedding and water were disinfected before use. All animals had free access to standard certified commercial laboratory food. A total of 64 mice purchased from Beijing Vital River Co., Ltd. were used for study. 0.2 mL of 5×10^6 MM.1S cells were subcutaneously inoculated on the right back of each mouse for tumor growth. The experiment was performed when the average tumor volume reached about 100 cubic millimeters to 150 cubic millimeters.
In vivo selective experiments were performed on CB-17 SCID mice implanted subcutaneously with human multiple myeloma cells MM.1S xenograft (CDX). The polymorph A of the compound of formula (I) was formulated with a mixed solution of 5% of dimethyl sulfoxide and 95% of 10% hydroxypropyl-β-cyclodextrin into a formulation to be administered orally for 5 days and stopped for 2 days. Ixazomib was administered once on the first day and fourth day of each week, respectively. The tumor volume was measured with a two-dimensional caliper twice a week, and the volume was measured in cubic millimeters and calculated by the following formula: V=0.5 a*b^2, in which a and b were the long diameter and short diameter of the tumor, respectively. The anti-tumor efficacy was determined by dividing the average tumor increase volume of animals treated with the compound by the average tumor increase volume of untreated animals.

For `O=C(NO)c1ccc(CNC(=O)c2ccc(C3(c4ccc(F)cc4)CCCO3)cn2)cc1` (centres unmarked), the Polymorph entry in data set [1] (Day 0, initial (XRPD)) was “Polymorph A”; in data set [1] (High humidity (room temperature/relative humidity of 92.5%, open), Day 5), “Polymorph A”; in data set [1] (High humidity (room temperature/relative humidity of 92.5%, open), Day 10), “Polymorph A”; in data set [1] (High temperature (60° C., open), Day 5), “Polymorph A”; in data set [1] (High temperature (60° C., open), Day 10) it was “Polymorph A”; in data set [1] (High temperature and high humidity (40° C., 75% RH; 60° C., 75% RH), Day 10), “Polymorph A”. Besides, the Polymorph result is “Polymorph A” in data set [1] (Strong light (5000 lx, sealed), Day 5); “Polymorph A” in data set [1] (Strong light (5000 lx, sealed), Day 10); “Polymorph A” in data set [2]. Further, the “Solid stability (conclusion)” value in data set [1] (high temperature, high humidity, high temperature and high humidity, and strong light) is “good stability”. Further, the “Stability (general statement)” value in data set [1] (light, heat and humidity, technical effects statement) is “stable, less affected by light, heat and humidity”. For the same compound, the Tumor volume came out at 134 mm^3 in data set [3] (75 mg/kg oral, administration for 5 days and drug withdrawal for 2 days, Day 0); 165 mm^3 in data set [3] (75 mg/kg oral, administration for 5 days and drug withdrawal for 2 days, Day 3); 319 mm^3 in data set [3] (75 mg/kg oral, administration for 5 days and drug withdrawal for 2 days, Day 5); 466 mm^3 in data set [3] (75 mg/kg oral, administration for 5 days and drug withdrawal for 2 days, Day 7); 753 mm^3 in data set [3] (75 mg/kg oral, administration for 5 days and drug withdrawal for 2 days, Day 10); 1006 mm^3 in data set [3] (75 mg/kg oral, administration for 5 days and drug withdrawal for 2 days, Day 12). In addition, the Tumor volume in data set [3] (75 mg/kg oral, administration for 5 days and drug withdrawal for 2 days, Day 14) is recorded as 1532 mm^3. In data set [3] (technical effects statement), the “Efficacy in vivo (general statement)” value is on record as “good efficacy in vivo”.
In the case of `CC(C)C[C@H](NC(=O)CNC(=O)c1cc(Cl)ccc1Cl)B(O)O` [Ixazomib, reference compound], the Tumor volume is given as 134 mm^3 in data set [3] (Ixazomib 4 mg/kg, twice a week, Day 0); 157 mm^3 in data set [3] (Ixazomib 4 mg/kg, twice a week, Day 3); 193 mm^3 in data set [3] (Ixazomib 4 mg/kg, twice a week, Day 5); 331 mm^3 in data set [3] (Ixazomib 4 mg/kg, twice a week, Day 7); 634 mm^3 in data set [3] (Ixazomib 4 mg/kg, twice a week, Day 10); 835 mm^3 in data set [3] (Ixazomib 4 mg/kg, twice a week, Day 12). Further, the Tumor volume in data set [3] (Ixazomib 4 mg/kg, twice a week, Day 14) came out at 1257 mm^3.
